From PubChem BioAssay AID1918952 (Molecular Pharmacology Branch, DTP, NCI, 2023)

System: LG0703-F948-PDC complex spheroid viability
Test: Anticancer human tumor LG0703-F948-PDC patient-derived lung adenocarcinoma cell line growth inhibition
Conditions: for IC50: curve of first compound; for viability, T/C: stronger effect = lower value
Source text: Multicellular complex tumor spheroid response to LSD1 Inhibitor Iadademstat in combination with a variety of drugs and investigational agents in selected tumor cell lines
The current study was undertaken to assess response to LSD1 inhibitors in combination with standard-of-care drugs and investigational agents in solid tumor complex spheroid models as well as in the K-562 leukemia. Complex spheroids include a stromal component modeled by human endothelial cells (HUVEC) and fibroblasts modeled by human mesenchymal stem cells (MSCs). The concentration ranges selected for each drug and investigational agent were based upon clinically achievable concentrations if the clinical Cmax of the agent was known.
Compounds. The drugs and investigational agents used in this study are listed on Table 1. All of the agents used, including staurosporine (NSC755774) and gemcitabine (NSC613327), were obtained from the Developmental Therapeutics Program, NCI. FDA-approved anticancer drugs are available from the NCI at http://dtp.nci.nih.gov/branches/dscb/oncology_drugset_explanation.html. Drugs and investigational agents were >95% pure by proton nuclear magnetic resonance (NMR) and liquid chromatography/mass spectrometry (LC/MS). Stock solutions were prepared at 400x in DMSO, stored at -70 degrees C, and diluted in fresh medium prior to their use. The final concentration of DMSO in cell culture wells never exceeded 0.25% (v/v). The FDA-approved anticancer drug set is available from the Developmental Therapeutics Program at https://dtp.cancer.gov/organization/dscb/obtaining/available_plates.htm. All drugs and investigational agents were tested over a range starting from a high concentration at or near the clinical Cmax and decreasing in half-log increments. If the clinical Cmax for an agent had not been determined, the highest concentration tested was 10 microM.
Cell Lines. The patient-derived cancer cell (PDC) lines: 292921-168-R-J2-PDC, K24384-001-R-PDC, and 521955-158-R2-J5-PDC pancreatic carcinomas, 556581-035-R-J1 ovarian carcinoma, 324938-238-R-J1-PDC, 855422-203-R-J1-PDC and 883617-216-R-J1-PDC urothelial bladder carcinomas, 743489-274-T-PDC renal cell carcinoma, 138582-R-J1 Merkel cell tumor, K60290-347-R-J1 and K57222-313-R-J1-PDC glioblastomas, 653999-131-R-J2-PDC, LG0703-F948-PDC, and 349418-098-R-PDC non-small cell lung carcinomas, 885512-296-R-J2-PDC, 171881-019-R-J1-PDC breast carcinomas and 186277-243-T-J2-PDC and 233499-124-R-J2-PDC colon carcinomas were obtained from the NCI Patient-Derived Models Repository (PDMR, https://pdmr.cancer.gov). The established cell lines NCI/ADR-RES (RRID:CVCL_14520 and OVCAR-5 (RRID:CVCL_1628) ovarian carcinomas, 786-O (RRID:CVCL_1051) and A498 (RRID:CVCL_A498) renal cell carcinoma, NCI-H211 (ATCC, cat. CRL-5824; RRID:CVCL_1529), NCI-H196 (ATCC, cat. CRL-5823, RRID:CVCL_1509), SW 1271 (ATCC, cat. CRL-2177, RRID:CVCL_1716) and NCI-H1876 (ATCC, cat. CRL-5902, RRID:CVCL_1503) small cell lung carcinomas, MDA-MB-231 (RRID:CVCL_0062) and MDA-MB-468 (RRID:CVCL_0419)breast carcinomas (10-12). Pooled donor human umbilical vein endothelial cells (HUVEC, Lonza, cat. CC-2519) and human mesenchymal stem cells (hMSC, Lonza, cat. PT-2501) were purchased from Lonza (Walkersville, MD).
Cell Culture. All cells were maintained in an incubator at 37 degrees C and 5% CO2 with 95% humidity. The PDC lines were cultured according to standard operating procedures established by the NCI PDMR (https://pdmr.cancer.gov). Briefly all PDCs were thawed and cultured in Matrigel-coated flasks prepared with a working solution of 1X Ham's F-12 nutrient mix, without supplementation (Invitrogen, Waltham, MA, cat. 11765054), 100 U/mL penicillin-streptomycin (Invitrogen, cat. 15140122), and 2.5% Matrigel (Corning Inc., Corning, NY, cat. 354248) for the first three passages. […]

[1] = second compound 0.1 µM, first compound 0.000949 µM
[2] = second compound 0.1 µM, first compound 0.003 µM
[3] = second compound 0.1 µM, first compound 0.00949 µM
[4] = second compound 0.1 µM, first compound 0.03 µM
[5] = second compound 0.1 µM, first compound 0.0949 µM
[6] = second compound 0.1 µM, first compound 0.3 µM
[7] = second compound 0.316 µM, first compound 0.000949 µM
[8] = second compound 0.316 µM, first compound 0.003 µM
[9] = second compound 0.316 µM, first compound 0.00949 µM
[10] = second compound 0.316 µM, first compound 0.03 µM
[11] = second compound 0.316 µM, first compound 0.0949 µM
[12] = second compound 0.316 µM, first compound 0.3 µM
[13] = second compound 1 µM, first compound 0.000949 µM
[14] = second compound 1 µM, first compound 0.003 µM
[15] = second compound 1 µM, first compound 0.00949 µM
[16] = second compound 1 µM, first compound 0.03 µM
[17] = second compound 1 µM, first compound 0.0949 µM
[18] = second compound 1 µM, first compound 0.3 µM
[19] = second compound 3.16 µM, first compound 0.000949 µM
[20] = second compound 3.16 µM, first compound 0.003 µM
[21] = second compound 3.16 µM, first compound 0.00949 µM
[22] = second compound 3.16 µM, first compound 0.03 µM
[23] = second compound 3.16 µM, first compound 0.0949 µM
[24] = second compound 3.16 µM, first compound 0.3 µM
[25] = second compound 10 µM, first compound 0.000949 µM
[26] = second compound 10 µM, first compound 0.003 µM
[27] = second compound 10 µM, first compound 0.00949 µM
[28] = second compound 10 µM, first compound 0.03 µM
[29] = second compound 10 µM, first compound 0.0949 µM
[30] = second compound 10 µM, first compound 0.3 µM
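Also: spheroids exposed to agents for seven days before readout.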
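For viability, T/C in this document: 100% = DMSO vehicle control wells as normalization base.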

CCc1c2c(nc3ccc(O)cc13)-c1cc3c(c(=O)n1C2)COC(=O)[C@]3(O)CC + NC1CC1c1ccc(-c2cccc(O)c2)cc1
IC50 (second compound 0.1 µM): 1.2 nM | IC50 (second compound 0.316 µM): 1.31 nM | IC50 (second compound 1 µM): 2.33 nM | IC50 (second compound 3.16 µM): 3.09 nM | IC50 (second compound 10 µM): 2.61 nM | viability, T/C [1]: 55.8% | viability, T/C [2]: 29.2% | viability, T/C [3]: 21.3% | viability, T/C [4]: 11.7% | viability, T/C [5]: 5.98% | viability, T/C [6]: 3.08% | viability, T/C [7]: 54.8% | viability, T/C [8]: 37.7% | viability, T/C [9]: 24.2% | viability, T/C [10]: 12.6% | viability, T/C [11]: 5.51% | viability, T/C [12]: 2.54% | viability, T/C [13]: 68.2% | viability, T/C [14]: 44.7% | viability, T/C [15]: 25.4% | viability, T/C [16]: 11.7% | viability, T/C [17]: 5.78% | viability, T/C [18]: 2.05% | viability, T/C [19]: 69.9% | viability, T/C [20]: 49.7% | viability, T/C [21]: 29.8% | viability, T/C [22]: 12.2% | viability, T/C [23]: 2.96% | viability, T/C [24]: 1.53% | viability, T/C [25]: 68.4% | viability, T/C [26]: 47.3% | viability, T/C [27]: 23.1% | viability, T/C [28]: 8% | viability, T/C [29]: 1.01% | viability, T/C [30]: 0.49%

Nc1ccn(C2OC(CO)C(O)C2(F)F)c(=O)n1 (stereo not given) + NC1CC1c1ccc(-c2cccc(O)c2)cc1
IC50 (second compound 0.1 µM): 12.6 nM | IC50 (second compound 0.316 µM): 74.2 nM | IC50 (second compound 1 µM): 100 nM | IC50 (second compound 3.16 µM): 145 nM | IC50 (second compound 10 µM): > 300 nM | viability, T/C [1]: 79% | viability, T/C [2]: 50.8% | viability, T/C [3]: 51.9% | viability, T/C [4]: 56.6% | viability, T/C [5]: 43.9% | viability, T/C [6]: 32.3% | viability, T/C [7]: 70.2% | viability, T/C [8]: 63.9% | viability, T/C [9]: 66.8% | viability, T/C [10]: 54% | viability, T/C [11]: 48.9% | viability, T/C [12]: 37.6% | viability, T/C [13]: 76.9% | viability, T/C [14]: 66.5% | viability, T/C [15]: 63.6% | viability, T/C [16]: 60.1% | viability, T/C [17]: 51.9% | viability, T/C [18]: 40.3% | viability, T/C [19]: 81.5% | viability, T/C [20]: 80.6% | viability, T/C [21]: 87.3% | viability, T/C [22]: 66% | viability, T/C [23]: 57.1% | viability, T/C [24]: 41.4% | viability, T/C [25]: 87% | viability, T/C [26]: 78.3% | viability, T/C [27]: 83.9% | viability, T/C [28]: 68.9% | viability, T/C [29]: 59% | viability, T/C [30]: 51.5%

O=C(c1cc(Cc2n[nH]c(=O)c3ccccc23)ccc1F)N1CCN(C(=O)C2CC2)CC1 + NC1CC1c1ccc(-c2cccc(O)c2)cc1
IC50 (second compound 0.1 µM): > 10000 nM | IC50 (second compound 0.316 µM): > 10000 nM | IC50 (second compound 1 µM): > 10000 nM | IC50 (second compound 3.16 µM): > 10000 nM | IC50 (second compound 10 µM): > 10000 nM | viability, T/C (second compound 0.1 µM, first compound 0.0316 µM): 112% | viability, T/C (second compound 0.1 µM, first compound 0.1 µM): 121% | viability, T/C (second compound 0.1 µM, first compound 0.316 µM): 114% | viability, T/C (second compound 0.1 µM, first compound 1 µM): 107% | viability, T/C (second compound 0.1 µM, first compound 3.16 µM): 92.6% | viability, T/C (second compound 0.1 µM, first compound 10 µM): 98.6% | viability, T/C (second compound 0.316 µM, first compound 0.0316 µM): 109% | viability, T/C (second compound 0.316 µM, first compound 0.1 µM): 111% | viability, T/C (second compound 0.316 µM, first compound 0.316 µM): 124% | viability, T/C (second compound 0.316 µM, first compound 1 µM): 99% | viability, T/C (second compound 0.316 µM, first compound 3.16 µM): 95.2% | viability, T/C (second compound 0.316 µM, first compound 10 µM): 79.5% | viability, T/C (second compound 1 µM, first compound 0.0316 µM): 102% | viability, T/C (second compound 1 µM, first compound 0.1 µM): 121% | viability, T/C (second compound 1 µM, first compound 0.316 µM): 134% | viability, T/C (second compound 1 µM, first compound 1 µM): 102% | viability, T/C (second compound 1 µM, first compound 3.16 µM): 92.1% | viability, T/C (second compound 1 µM, first compound 10 µM): 86% | viability, T/C (second compound 3.16 µM, first compound 0.0316 µM): 114% | viability, T/C (second compound 3.16 µM, first compound 0.1 µM): 107% | viability, T/C (second compound 3.16 µM, first compound 0.316 µM): 122% | viability, T/C (second compound 3.16 µM, first compound 1 µM): 102% | viability, T/C (second compound 3.16 µM, first compound 3.16 µM): 106% | viability, T/C (second compound 3.16 µM, first compound 10 µM): 127% | viability, T/C (second compound 10 µM, first compound 0.0316 µM): 111% | viability, T/C (second compound 10 µM, first compound 0.1 µM): 94.3% | viability, T/C (second compound 10 µM, first compound 0.316 µM): 110% | viability, T/C (second compound 10 µM, first compound 1 µM): 107% | viability, T/C (second compound 10 µM, first compound 3.16 µM): 106% | viability, T/C (second compound 10 µM, first compound 10 µM): 91.8%
